Patent US20250154180A1, “CRK-LIKE (CRKL) ADAPTOR PROTEIN INHIBITORS AND METHODS OF MAKING AND USING THE SAME” (Rutgers, The State University of New Jersey, priority 2022, published 2025)

Experiments:
[1] = test system: HCC HepG2 cells; assay: MTT proliferation assay, HepG2; type: cell-based; details: 48 hours
Procedure: (§1) MTT assay—The MTT assay was used to detect cell proliferation. Briefly, cells were plated in a 96-well plate at a density of 50,000 cells/well in 200 μl of culture medium with candidate drugs to be tested (DMSO as a negative control). The treated cells were incubated for four hours a 37° C. with a 5% CO2 incubator to allow dark crystals to form at the bottom of the wells. After culturing for 48 hours, 10 ml of MTT reagent was added to each well and mixed gently for one minute. After aspirating the culture medium from each well, 100 μl of crystal dissolving solution was added to each well and incubated for 10 minutes at RT. The signal was quantified by measuring the absorbance in each sample at 570 nm using a microplate reader.

[2] = test system: MDA-MB-231 cells; assay: MTT proliferation assay, MDA-MB-231; type: cell-based
Procedure: as §1
Compound II is referred to as “NC5-SO2F” in FIGS. 7A-7C.
Cell proliferation was first determined by MTT assay as confirmation. […] CrkL is known to mediate the activation of both Raf/ERK and PI3K pathways. So, proteins that relate to these two pathways were utilized.

[3] = test system: TNBC cells (MDA-231 and MDA-468); assay: Annexin V/PI apoptosis, TNBC (MDA-231 and MDA-468); type: cell-based; details: 1 uM, 24 hours
Procedure: Annexin V/PI Staining—Experimental cells were collected, washed with 1×PBS, resuspended in the binding buffer, and stained with an Annexin V-FITC assay Kit (Millipore Sigma). The cells were incubated with 50 μg/ml Annexin V in 1× binding buffer at room temperature for 15 minutes, then 10 μg/ml propidium iodide for another 15 minutes and analyzed by flow cytometry (EPICS XL). Annexin V-positive/PI-negative cells were considered early apoptotic, cells with both Annexin V and PI-positive to be late apoptotic, and Annexin V negative but PI-positive to be “necrotic.” The percent of apoptosis was calculated as the sum of the percentages of both early and late apoptotic cells.
To figure out the features of cytotoxic effects of Pomiferin on breast cancer cells. Pomiferin-treated breast cancer cells were stained with an Annexin V/PI kit and measured them with Flow Cytometry.

[4] = test system: hematopoietic cancer cell lines (K562, NK92-MI, Daudi, KHYG-1); assay: MTT assay, hematopoietic cancer cell lines; type: cell-based; details: five M Pomiferin for three days; compared with MDA-MD-231-LUC
Procedure: as §1, with “After culturing for 48 hours, 10 ml of MTT reagent was added to each well and mixed gently for one minute.” left out
To further test the inhibitory specificity of Pomiferin for specific breast cancer cell lines, The survival percentage was compared between different hematopoietic cancer cell lines and healthy PBMCs.

[5] = test system: PBNK killing in BXPC3 cells; assay: Cr51 release assay, PBNK killing of BXPC3; type: cell-based; details: 1 uM overnight
Procedure: In this example, activity of NC5 was evaluated for PBNK and CD147-CAR-NK killing in BXPC3 cells. PBNK or CD147-CAR-NK cells were incubated with 1 uM NC5 overnight, then cells were harvested for Cr51 release assay to check cell cytotoxicity. […] The star symbol indicates the significance of vehicle vs. NC5 of the indicated E:T ratios. *p<0.05, **p<0.01, n=3.

[6] = test system: pCrkL (T207) in Sk-Hep1 cells; assay: Flow cytometry of H2O2-induced pCrkL, Sk-Hep1; type: cell-based; details: 50 uM H2O2 1 hour, then 10 uM compound 24 hours
Procedure: In this example, Sk-Hep1 cells were pretreated with 50 uM H2O2 for 1 hour to induce activation of pCrkL and were then incubated with 10 uM NC5 or Compound III for 24 hours. pCrkL (T207) expression was determined by flow cytometry.

[7] = Mouse toxicity assays (serum ALT, AST, BUN, creatinine); type: in vivo, mice; details: mouse, in vivo
Procedure: Three mice were treated in each group. Blood samples were collected from every mouse in pre-treatment and post-treatment (20 days), and serum was obtained for alanine aminotransferase (ALT, SGPT, FIG. 12A), aspartate aminotransferase (AST, SGOT, FIG. 12B), blood urea nitrogen (BUN, FIG. 12C), and creatinine (FIG. 12D) tests to monitor liver and kidney toxicity. The normal Reference Ranges for ALT is 17-77 IU/L; AST is 54-298 IU/L; BUN is 18.5-33.3 mg/dL; Cr is 0-0.40 mg/dL.
Mouse toxicity assays—Blood was collected from the submandibular facial vein following IACUC guidelines (CMP, Houston Methodist Research Institute and Rutgers University) before and 20-day after the drug treatment. The Department of Veterinary Medicine & Surgery, MD Anderson Cancer Center, performed the clinical biochemistry and pharmacokinetics tests. Blood serum chemistry analysis included alanine transaminase (ALT), aspartate transaminase (AST), blood urea nitrogen (BUN), and creatinine level measurements.
Alanine aminotransferase (ALT, SGPT), aspartate aminotransferase (AST, SGOT), blood urea nitrogen (BUN), and creatinine levels were examined to determine liver and kidney toxicity of Pomiferin treatments in vivo. […] Nevertheless, these changes have no physiological significance because ALT, AST and BUN levels in all mice were within normal mouse reference ranges. […]

[8] = test system: 4T1 breast tumor; assay: 4T1-Luc orthotopic syngeneic breast tumor model; type: in vivo, Balb/c mice; details: 5.0 μg/g oral gavage
Source text: Syngeneic orthotopic 4T1 breast tumor-bearing mouse model was established by inoculating 5×10^4 4T1-Luc cells mixed with Matrigel were into the left inguinal fat pad of Balb/c mice from Jackson Laboratories. This orthotopic syngeneic breast tumor model is a tool for preclinical testing of anti-cancer drugs or immunotherapy that require an intact immune system to elicit activity.
To test the effects of the disclosed compounds on the xenograft mouse models, the HCC-Sk-Hep1 cell line xenograft model in NSG mice and 4T1-Luc orthotopic syngeneic breast tumor model in Balb/c mice was used. After confirming the palpable tumor in NSG or Balb/c mice. […] Compound III is referred to as “NC5-140-1” and Compound I is referred to as “NC5-140-2” in FIGS. 11A-11C.

## CC(C)=CCc1c2c(c3occ(-c4ccc(O)c(O)c4)c(=O)c3c1O)C=CC(C)(C)O2 [Pomiferin, 3′,4′,5-Trihydroxy-6″,6″-dimethyl-6-(3-methylbut-2-en-1-yl)-6″H-pyrano[2″,3″:7,8]isoflavone]
[1]
  concentration at which HepG2 cell proliferation starts to be significantly inhibited: one
[2]; 1 uM, 5 uM and 10 uM, 24 hours
  cell proliferation (MTT): significantly inhibited cell proliferation
[2]; 2.5 μM, 48 hours, vs DMSO
  cell proliferation (MTT): blocked cell proliferation
[3]
  apoptosis: significantly induced apoptosis
[4]
  sensitivity to Pomiferin (survival percentage, MTT): more resistant to Pomiferin inhibition
[5]
  PBNK killing (Cr51 release): increased
[6]
  H2O2 induced pCrkL protein levels: inhibited H2O2 induced pCrkL protein levels
[7]
  damage to the liver and kidneys: little to no damage to the liver and kidneys
[8]
  tumor growth: steady growth inhibition
[8]; vehicle 25 days
  median survival: 38.5 days
